Measurements published in patent publication US20160175802A1, “METHOD FOR MAKING A GAS FROM AN AQUEOUS FLUID,PRODUCT OF THE METHOD, AND APPARATUS THERFOR” (priority 2007, published 2016).

Experiments:
goldfish = assay: Fish growth in home aquariums; format: in vivo; conditions: SG Gas bubbled into aquarium for thirty days vs air
Excerpt: Fish Growth: Two home aquariums were used to hold two respective groups of goldfish. SG Gas was bubbled into one aquarium and the second with air for a period of thirty days.

pH test = format: physicochemical; conditions: distilled water infused with SG Gas (distilled water pH 6.8)
[1] = Total Dissolved Solids after infusion; format: physicochemical; conditions: after infusion of SG Gas into distilled water for approximately 11 minutes (start 0.33 ppm)
Excerpt: The resulting ionized or polarized water (“SG Gas-infused Water”) clings longer to a magnet when compared to that of regular water. Absorption over time or saturation graphs to monitor changes in the water properties infused with SG Gas including capacitance levels may be prepared. […] Other measurement: Total Dissolved Solids (TDS) dropped from a start of 0.33 ppm in untreated distilled water to a finish of 0.17 ppm after infusion of SG Gas into distilled water for a period of approximately 11 minutes. A Fluke 189True RMS Multimeter was used to measure drop in capacitance.

[2] = Storage of SG Gas in water; format: physicochemical; conditions: polarized water with SG Gas treatment
Excerpt: Storage of SG Gas in Water: The resulting polarized water with SG Gas treatment remains stable and can be stored for 2 years or more. The actual maximum storage time has yet to be observed but in theory, SG Gas should remain permanently stable in the water.

SG Gas under pressure = format: physicochemical
Excerpt: In an exemplary procedure for compression, SG Gas is discharged from the apparatus into a hose with a compressor attached. We use a Whirlwind Compressor, Model 2200-2 HPE, manufactured by High Pressure Eng. Co. Inc. A canister with pressure gauges is used to fill the chamber with SG Gas, using a hose to transport the SG Gas from the apparatus and compressor into the canister. We use an empty oxygen tank that has been vacuumed to remove any residual oxygen and water. The empty and vacuumed oxygen tank with pressure valve has a manufacturer name of White Martins, ABRE with dimensions of 23″ diameter and 19″ height. SG Gas is placed under pressure in the compression chamber up to and beyond 1,000 psi. for storage of SG Gas.
Analytical Testing and Observations of SG Gas Under pressure Maximum Pressure: SG Gas imploded when pressures exceeded 1,600 psi.
Safe Pressurization: SG Gas remains safe and stable at pressures around 1,000 psi for over 30 days. SG Gas should remain stable under pressure indefinitely, at least for a sufficient period of time to allow said gas to be utilized at time 30-60 days after generation.

With hydroxyhydrogen [SG Gas] the “algae growth in aquarium tank” value (goldfish) was “less algae growth”, the “growth of goldfish compared with air-aerated aquarium” value (goldfish) was “at least 15%” and the pH (pH test) was 7.6. The “Total Dissolved Solids (TDS)” value [1] was 0.17 ppm, the “storage time over which water remains stable” value [2] was at least 2 years and the “Maximum Pressure: pressure above which SG Gas imploded” value (SG Gas under pressure) was “exceeded 1,600 psi”. For the same substance, the “time safe and stable under pressure” value (SG Gas under pressure; pressures around 1,000 psi) was “over 30 days”.
